This test deals with T1, human farnesyl transferase (Homo sapiens, UniProt P49354+P49356).
T1 construct: human farnesyl transferase purified from THP1 cell cultures; endogenous in cells; host or cells: THP1 cell cultures (enzyme purified from the cells)
Kind of test: inhibition of farnesyl transferase ((3H) farnesyl transfer from (3H) FPP to p21 H-ras). The format is biochemical. The essentials:
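Radiometric transfer of [3H]farnesyl from 4.5 pmol [3H]FPP to 200 pmol p21 H-ras by ~5 ng human enzyme purified from THP1 cells, in 50 mM Tris-HCl, 5 mM MgCl2, 5 mM DTT, 0.2% octyl glucoside, 20 min at 37 °C. Protein precipitated with SDS/TCA in methanol, filter-bound counts measured; IC50 from 9 concentrations, triplicate.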

Where [1] appears, read: human farnesyl transferase purified from THP1 cell cultures, p21 H-ras substrate, 20 minutes at 37° C., 9 concentrations, read-out: in vitro inhibitory activity IC50.

pIC50: −log10 of the molar value. Where two headings read alike, the source gives them in different places.

The record followed here is US5936097A, “4,9-ethano-benzo(F)isoindole derivatives as farnesyl transferase inhibitors” (Rhone-Poulenc Rorer, S.A., priority 1995, dated 1999).

As to `C=C(C(=O)N1C[C@H]2[C@@]3(c4ccccc4)CC[C@H](c4ccccc43)[C@@]2(C(=O)NC(C#N)c2ccccc2)C1)c1ccccc1OC` (stereo partly drawn) [Example 87, (3aS,4R,9R,9aS)-N-[1-(R,S)-1-cyano-1-phenylmethyl]-4,9-ethano-2-[(2-methoxyphenyl)prop-2-en-1-oyl]-9-phenyl-2,3,3a,4,9,9a-hexahydro-1H-benzo[f]isoindole-3a-carboxamide], the negative logarithm of the IC50 (pIC50) (in general, the IC50 on a negative log10 scale, so that one unit is a factor of ten) under setting [1] is 6.60. For the compound `COc1ccccc1CC(=O)N1C[C@@H]2[C@]3(c4ccccc4)CC[C@@H](c4ccccc43)[C@]2(C(=O)NO)C1` (racemic) [Example 46, (3aRS,4SR,9SR,9aRS)-4,9-ethano-2-(2-methoxyphenylacetyl)-9-phenyl-2,3,3a,4,9,9a-hexahydro-1H-benzo[f]isoindole-3a-carbohydroxamic acid], the pIC50 under setting [1] is 5.90. Regarding `C=C(C(=O)N1C[C@H]2[C@@]3(c4ccccc4)CC[C@H](c4ccccc43)[C@@]2(C(=O)NCc2ccc(C(F)(F)F)cc2)C1)c1ccccc1OC` [Example 92, (3aS,4R,9R,9aS)-N-[4-trifluorobenzyl]-[4,9-ethano-2-(2-methoxyphenyl)prop-2-en-1-oyl]-9-phenyl-2,3,3a,4,9,9a-hexahydro-1H-benzo[f]isoindole-3a-carboxamide], the pIC50 under setting [1] is 5.32.

As to `CC(C)Oc1ccccc1CC(=O)N1C[C@@H]2[C@]3(c4ccccc4)CC[C@@H](c4ccccc43)[C@]2(C(=O)O)C1` (relative stereo) [Example 40, (3aRS,4SR,9SR,9aRS)-4,9-ethano-2-(2-isopropyl-oxyphenyl)acetyl-9-phenyl-2,3,3a,4,9,9a-hexahydro-1H-benzo[f]isoindole-3a-carboxylic acid], the pIC50 under setting [1] is 5.53. `CCOP(=O)(C[C@]12CN(C(=O)Cc3ccccc3OC)C[C@H]1[C@@]1(c3ccccc3)CC[C@@H]2c2ccccc21)OCC` (relative stereo) [Example 22, diethyl ester of [(3aRS, 4SR, 9SR, 9aRS)-4,9-ethano-2-(2-methoxyphenyl)acetyl-9-phenyl-2,3,3a,4,9,9a-hexahydro-1H-benzo[f]isoindol-3a-yl]methylphosphonic acid]: the pIC50 was 5.00. As for `COc1ccccc1[C@H](C)C(=O)N1CC2C3(c4ccccc4)CCC(c4ccccc43)C2(C(=O)O)C1` (single isomer, unassigned) [Example 34], the negative logarithm of the IC50 (pIC50) was 6.23. `O=C(Cc1ccccc1O)N1C[C@@H]2[C@]3(c4ccccc4)CC[C@@H](c4ccccc43)[C@]2(C(=O)O)C1` (relative stereo) [Example 60, (3aRS,4SR,9SR,9aRS)-4,9-Ethano-2-(2-hydroxyphenyl)acetyl-9-phenyl-2,3,3a,4,9,9a-hexahydro-1H-benzo[f]isoindole-3a-carboxylic acid] had a pIC50 of 5.74.

For the compound `CC(=O)Oc1ccccc1CC(=O)N1C[C@H]2[C@@]3(c4ccccc4)CC[C@H](c4ccccc43)[C@@]2(C(=O)O)C1` (relative stereo) [Example 29, (3aRS, 4SR, 9SR, 9aRS)-4,9-ethano-2-(2-acetoxyphenyl)acetyl-9-phenyl-2,3,3a,4,9,9a-hexahydro-1H-benzo[f]isoindole-3a-carboxylic acid], the negative-log IC50 (pIC50) under setting [1] was 5.64. Turning to `C=C(C(=O)N1C[C@H]2[C@@]3(c4ccccc4)CC[C@H](c4ccccc43)[C@@]2(C(=O)NCc2cccs2)C1)c1ccccc1OC` [Example 95, (3aS,4R,9R,9aS)-N-[(2-thienyl)-methyl]-4,9-ethano-2-[(2-methoxyphenyl)prop-2-en-1-oyl]-9-phenyl-2,3,3a,4,9,9a-hexahydro-1H-benzo[f]isoindole-3a-carboxamide], the pIC50 under setting [1] was 6.57.

As for `C=C(C(=O)N1C[C@H]2[C@@]3(c4ccccc4)CC[C@H](c4ccccc43)[C@@]2(C(=O)NCc2ccco2)C1)c1ccccc1OC` [Example 94, (3aS,4R,9R,9aS)-N-[(2-furyl)-methyl]-4,9-ethano-2-[(2-methoxyphenyl)prop-2-en-1-oyl]-9-phenyl-2,3,3a,4,9,9a-hexahydro-1H-benzo[f]isoindole-3a-carboxamide], the pIC50 under setting [1] is 6.37.
